Here are results for one compound from patent publication US11541059B2, “Heterocyclic compounds and uses thereof” (Infinity Pharmaceuticals, Inc., priority 2014, dated 2023).

Structures are written as SMILES.

The IC50 is the concentration that inhibits the measured activity by half. Low values mean inhibition by little substance, high ones a need for much substance.

The subject of one data set is Lewis Lung Carcinoma. The data set can be described thus: Lewis Lung Carcinoma model / LLC tumor brei model. It is filed as in vivo, mouse.
The test system of another data set is 4T1 breast cancer. The data set is described as follows: Subcutaneous 4T1 breast cancer model. It is filed as in vivo. The following applies: co-administration with docetaxel, paclitaxel, or 5-FU.
For data set [1], the system named is differentiation of myeloid cells into M2 TAMs. The data set can be described thus: Murine M2 TAM differentiation (ARG1). The format is cell-based, mouse. The following applies: FIG. 22A, 22B. An excerpt:
High ARG1 (Arginase-1) levels indicate that myeloid cells are differentiating into M2 macrophages, so lower ARG1 levels relative to a control indicate interference with differentiation into M2 macrophages. Expression of Arginase-1 depletes the tumor microenvironment of arginine, thereby promoting T cell death and NK cell inhibition. Schmid et. al., Proceedings: AACR 103rd Annual Meeting 2012, Cancer Research: Apr. 15, 2012; Volume 72, Issue 8, Supplement 1. […] M2 TAMs promote cancer cell survival (FIG. 23).

In another data set the test system is CT26 tumors. The data set is described as follows: CT26 colon cancer allograft model. The format is in vivo, mouse. The settings on record: FIG. 28.
The subject of data set [2] is CD11b+ myeloid cells in 4T1 tumors. The data set is described as follows: Immunohistochemistry of tumor immune infiltrates (CD11b, CD68), 4T1. The format is in vivo, mouse. The settings on record: vs vehicle, day 13. As for the experimental part: Immunohistochemistry was performed to determine the distribution of immune cells within the tumor. In particular, CD11b myeloid cells were examined, as were regulatory vs. effector T cells (CD3, CD4, CD8, FoxP3). Briefly, IHC for CD11b or CD68+ was performed as follows. CD11b antibodies were available from Abcam, clone I-70, Catalog #ab 8878. CD68 antibodies were available from Abcam, clone FA-11, catalog #ab 53444. Tissues were fixed in cold methanol, air-dried, and then stained using a Res IHC Omni-UltraMap HRP XT protocol.
Without being bound by a particular theory, the decrease in the pro-tumorigenic tumor associated myeloid cells can result in activation of cytotoxic T-cells and anti-tumor immunity. […] When the images were quantified as CD11b+ cells per total viable cells (FIG. 37E), a Student t-Test p-value of 0.0355 was obtained when comparing the Compound BB-treated cells to controls. When the images were quantified as CD11b+ stained area per total visible area (FIG. 37F), a Student t-Test p-value of 0.0441 was obtained when comparing the Compound BB-treated cells to controls. […] When the images were quantified as CD11b+ cells per total viable cells (FIG. 37G), a Student t-Test p-value of 0.0864 (d16) or 0.3967 (d22) was obtained when comparing the Compound BB-treated cells to controls. […]

The subject of data set [3] is TAMs / CD206 in LLC tumor brei. The data set is described as follows: Flow cytometry of tumor-associated myeloid cells, LLC tumor brei. It is filed as in vivo, mouse. Here is the method: (§1) Flow cytometry was performed to obtain a more extensive cellular subset analysis. In particular, the study examined T cell vs. Myeloid cells, Myeloid cell subsets, Regulatory vs. effector T cells, and Tumor markers vs. WBC (e.g., PD-L1 expression on tumor).
(§2) Different populations of tumor-associated myeloid cells can be identified by flow cytometry, e.g., monocytic immature myeloid cells (iMC),Granulocytic iMCs/Neutrophils, Tumor Associated Macrophages (TAMs), and Granulocytic MDSCs. The different populations, and panels for detecting MDSCs, are described in Cancer Discovery 2011; 1:54-67. Tumors may vary in their myeloid cell composition.
In general terms: In flow cytometry, cells or beads pass a laser one at a time.

The test system of data set [4] is monocytic iMCs in CT26 subcutaneous tumors. The data set is described as follows: Flow cytometry of tumor-associated myeloid cells, CT26. The settings on record: FIG. 38B. The format is in vivo, mouse. Here is the method: as §1, §2
Data set [5] deals with immune gene expression in KPC tumors. The data set is described as follows: RNA expression profiling (TLDA) of KPC pancreatic tumors. It is filed as in vivo, mouse. The following applies: 3 mg/kg, with or without PDL-1 antibody. As for the experimental part:
RNA expression profiling was performed for immuno-phenotyping with a Tagman low density array (TLDA).
For mouse tumors, snap frozen samples were powdered with a Genogrinder at liquid nitrogen temperatures and RNA was isolated with Trizol. Next, the sample was cleaned-up using Qiashredder, and then using a RNeasy kit.
CT values were used for analysis. For each sample Si and each gene, the following values were calculated: dCT(Si,gene)=CT(Si,gene)−CT(Si,ACTB) ddCT(Si,gene)=dCT(Si,gene)−median(dCT(vehicle treated samples,gene)) RQ(Si,gene)=2^(−ddCT(Si,gene))
This produced a matrix of RQ values: 48 genes (rows)×39 samples (cols).
The analysis used R package Non-negative Matrix Factorization (NMF) with rank=3 and the “lee” algorithm.

Another data set in a line: Human hep viability. The format is cell-based. The following applies: human hepatocytes.
A short description of data set [6]: Target organ toxicity (TOT) study, 10 days oral. It is filed as in vivo. The settings on record: rat. As for the experimental part: A target organ toxicity (TOT) study was performed in rats. […] This study assessed clinical observations/mortality, body weights, clinical pathology, toxicokinetics, and histopathology of select tissues. The tissues studied were: Adrenal gland, Bone marrow (femur), Brain, Small Intestine (including GALT), Heart, Large Intestine, Kidney, Stomach, Liver, Pancreas, Spleen, Testis, and Thymus. Doses were selected based on repeat-dose tolerability study, PK and plasma protein binding, and cellular IC50s for PI3K isoforms. The doses selected were: high-dose: 50 mg/kg/day, expected to inhibit α, β, δ, and γ PI3K isoforms; Mid-high dose: 20 mg/kg/day, expected to inhibit β, δ, and γ PI3K isoforms; Mid-low dose: 7.5 mg/kg, expected to inhibit γ PI3K isoform only; and Low-dose: 1 mg/kg/day, expected to inhibit γ PI3K isoform only.

The next data set deals with LLC tumor. The data set can be described thus: LLC tumor brei model with or without cyclophosphamide. It is filed as in vivo, mouse. The settings on record: BB 15 mg/kg QD PO; cyclophosphamide 50 mg/kg EOD IP, FIG. 48.

`C[C@H](NC(=O)c1c(N)nn2cccnc12)c1cc2cccc(C#Cc3cnn(C)c3)c2c(=O)n1-c1ccccc1` [Compound BB]: in the data set with Lewis Lung Carcinoma, the “CD206+ M2 polarized suppressive macrophages” value is “reduces” and the TAMs entry is recorded as “decreased”. In the data set on 4T1 breast cancer, the tumor growth entry was “further reduction in tumor growth”. For the same compound, the “M2 TAM differentiation (ARG1 levels)” value in data set [1] was “inhibited M2 TAM differentiation much more effectively than PI3K-δ inhibitor”. For the same compound, the “MDSC expansion after cyclophosphamide treatment” value in the data set on CT26 tumors is “expansion is decreased”. Moreover, in [2], the “CD11b+ myeloid cell staining in viable regions of 4T1 tumors” value is “decrease in CD11b+ myeloid cell staining”. For the same compound, the “Infiltrating TAMs” value in data set [3] (FIG. 38A) was “the number of infiltrating TAMs was decreased”. Moreover, in data set [3] (FIG. 39), the “CD206 staining (M2 polarized suppressive macrophages)” value is recorded as “CD206 staining was reduced”. Besides, the “Monocytic iMCs” value in data set [4] is given as “monocytic iMCs were decreased”. The “M2 macrophage markers VEGF and ARG-1 (RNA)” value in data set [5] was “trended towards reduction”. In addition, the IC50 in the data set “Human hep viability” lay within 10 to 25 µM. For the same compound, in [6] (high dose animals (50 mg/kg/day)), the “Decrease in body weights compared to vehicle” value is reported as 5-8%. In addition, the “Histopathology, thymus” value in data set [6] (males ≥7.5 mg/kg/day, females 50 mg/kg/day) is “minimal/mild lymphoid depletion”. For the same compound, in [6] (oral 10 days, any dose level), the “Mortality and clinical signs” value is listed as “No mortality or clinical signs were observed”. Also, in [6] (oral, 1, 7.5, 20, 50 mg/kg/day), the “Tolerability, TOT study” value is on record as “well-tolerated for 10 days”. In addition, the “Histopathology, spleen” value in data set [6] (primarily at doses ≥20 mg/kg/day) was “minimal/mild lymphoid depletion of the marginal zone and periarteriolar lymphoid sheaths (PALS)”. Besides, the “Tumor growth, LLC tumor brei model” value in the data set with LLC tumor is on record as “reduced tumor growth by about the same amount”.
